≈ marks a conversion by molar mass, not a printed value.
How the values were obtained:
thioredoxin = thioredoxin (Homo sapiens, UniProt P10599); details: irreversible inhibitor of thioredoxin; cited from earlier work
[1] = system: 60 human cancer cell lines; experiment: cells; format: cell-based; details: Homo sapiens; for CC50: 48 h, read-out: mean LC50
Experimental: (§1) Compounds were tested for in vitro activity (48 h drug exposure) across 60 human cancer cell lines through the National Cancer Institute (NCI) Developmental Therapies Screening Program (Boyd et al., 1995).

colon sub-panel = experiment: cells; format: cell-based; details: Homo sapiens, SW-620, read-out: mean LC50 in colon sub-panel
Experimental: as §1

renal sub-panel = experiment: cells; format: cell-based; details: Homo sapiens, 60 cell, read-out: mean LC50 in renal sub-panel
Experimental: as §1

A549 lung adenocarcinoma = experiment: Growth inhibitory assay (MTT, 72 hr); format: cell-based; details: Homo sapiens, 72 hr exposure
Experimental: (§2) Compounds were prepared as 10 mM top stocks, dissolved in DMSO, and stored at 4° C., protected from light, for a maximum period of 4 weeks. Human derived cell lines (HCT 116, HT29 colon carcinoma; MCF-7 (ER+), MDA 468 (ER−) breast carcinoma; A549 lung adenocarcinoma) were routinely cultivated at 37° C. in an atmosphere of 5% CO2 in RPMI 1640 medium supplemented with 2 mM L-glutamine and 10% fetal calf serum and subcultured twice weekly to maintain continuous logarithmic growth. Cells were seeded into 96-well microtiter plates at a density of 5×10^3 per well and allowed 24 hr to adhere before drugs were introduced (final concentration 0.1 nM–100 μM, n=8). Serial drug dilutions were prepared in medium immediately prior to each assay. At the time of drug addition and following 72 hr exposure, MTT was added to each well (final concentration 400 µg/mL). Incubation at 37° C. for 4 hr allowed reduction of MTT by mitochondrial dehydrogenase to an insoluble formazan product. Well contents were aspirated and formazan solubilized by addition of DMSO:glycine buffer (pH 10.5) (4:1). Absorbance was measured using an Anthos Labtec systems plate reader at 550 nm, and used as a measure of cell viability; thus cell growth or drug toxicity was determined.

HCT 116 colon carcinoma = experiment: Growth inhibitory assay (MTT, 72 hr); format: cell-based; details: Homo sapiens, 72 hr exposure
Experimental: as §2

HT29 colon carcinoma = experiment: Growth inhibitory assay (MTT, 72 hr); format: cell-based; details: Homo sapiens, HT-29, 72 hr exposure
Experimental: as §2

[2] = system: Mycobacterium tuberculosis H37Rv (ATCC 27294); experiment: Microplate Alamar Blue Assay (MABA), TAACF primary screening; format: cell-based; details: lowest concentration effecting a reduction in fluorescence of 90% relative to controls
Text: Compounds were submitted to the Tuberculosis Antimicrobial Acquisition and Coordinating Facility (TAACF) for testing as antimycobacterial drugs.
Compounds were subjected to in vitro evaluation for antimycobacterial activity.
See, for example, Collins et al., 1997.

[3] = system: MCF-7 (ER+) breast carcinoma; experiment: Growth inhibitory assay (MTT, 72 hr); format: cell-based; details: Homo sapiens, MCF7, 72 hr exposure
Experimental: as §2

[4] = system: MDA 468 (ER−) breast carcinoma; experiment: Growth inhibitory assay (MTT, 72 hr); format: cell-based; details: Homo sapiens, 72 hr exposure
Experimental: as §2

[5] = bovine, serum; cited from earlier work
[6] = mean over NCI 60 cell panel, 48 h drug exposure

Chain of thioredoxin (P10599 whole entry): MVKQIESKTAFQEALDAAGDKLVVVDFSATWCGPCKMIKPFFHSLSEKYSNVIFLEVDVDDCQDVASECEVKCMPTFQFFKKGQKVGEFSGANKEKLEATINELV

CN(C)CC1CCC(CN(C)C)C1=O (stereo not drawn) [NSC-131233, 2,5-bis[(dimethylamino)methyl]cyclopentanone]
Ki (thioredoxin): 1 µM

O=C1C=CC(O)(c2cc3ccccc3o2)C=C1 [Q01, 4-(Benzofuran-2-yl)-4-hydroxy-2,5-cyclohexadien-1-one]
CC50 ([1]; 60 cell): 7.24 µM | GI50 [1, 6]: 0.52 µM | LC50 (colon sub-panel): 3.66 µM | mean LC50 (renal sub-panel): 2.4 µM | IC50 (A549 lung adenocarcinoma): 2.3 µM | IC50 (HCT 116 colon carcinoma): 0.159 µM | IC50 (HT29 colon carcinoma): 0.419 µM | MIC [2]: 1.56 µg/mL (≈ 6.9 µM)

O=C1C=CC(O)(c2cc3ccccc3s2)C=C1 [Q02, 4-(Benzothiophen-2-yl)-4-hydroxy-2,5-cyclohexadien-1-one]
CC50 ([1]; 60 cell): 5.75 µM | GI50 ([1]; 60 cell, Table 5): 0.55 µM | GI50 [1, 6]: 0.25 µM | LC50 (colon sub-panel): 1.69 µM | mean LC50 (renal sub-panel): 1.4 µM | IC50 (A549 lung adenocarcinoma): 2.43 µM | IC50 (HCT 116 colon carcinoma): 0.169 µM | IC50 (HT29 colon carcinoma): 0.552 µM

O=C1C=CC(O)(c2cc3ccccc3[nH]2)C=C1 [Q03, 4-(Indol-2-yl)-4-hydroxy-2,5-cyclohexadien-1-one]
GI50 [1, 6]: 1.41 µM | IC50 (A549 lung adenocarcinoma): 6.13 µM | IC50 (HCT 116 colon carcinoma): 2.84 µM | IC50 (HT29 colon carcinoma): 1.76 µM | MIC [2]: 3.13 µg/mL (≈ 13.9 µM) | melting point: 133 °C

O=C1C=CC(O)(c2nc3ccccc3o2)C=C1 [Q04, 4-(Benzoxazol-2-yl)-4-hydroxy-2,5-cyclohexadien-1-one]
CC50 ([1]; 60 cell): 7.08 µM | GI50 [1, 6]: 0.46 µM | LC50 (colon sub-panel): 1.13 µM | mean LC50 (renal sub-panel): 1.64 µM | IC50 (A549 lung adenocarcinoma): 2.33 µM | IC50 (HCT 116 colon carcinoma): 0.18 µM | IC50 (HT29 colon carcinoma): 0.29 µM | IC50 [3]: 0.39 µM | IC50 [4]: 0.35 µM | MIC [2]: 1.56 µg/mL (≈ 6.87 µM)

O=C1C=CC(O)(c2nc3ccccc3s2)C(Cl)=C1 (stereo not drawn) [Q06, 4-(Benzothiazol-2-yl)-3-chloro-4-hydroxy-2,5-cyclohexadien-1-one]
CC50 ([1]; 60 cell): 6.31 µM | GI50 [1, 6]: 0.46 µM | LC50 (colon sub-panel): 2.31 µM | mean LC50 (renal sub-panel): 1.8 µM | IC50 (HCT 116 colon carcinoma): 14.9 µM | IC50 (HT29 colon carcinoma): 26.3 µM

O=C1C=CC(O)(c2nc3ccccc3[nH]2)C=C1 [Q07, 4-(Benzimidazol-2-yl)-4-hydroxy-2,5-cyclohexadien-1-one]
GI50 [1, 6]: 1.1 µM | IC50 (HCT 116 colon carcinoma): 0.21 µM | IC50 (HT29 colon carcinoma): 0.504 µM | IC50 [3]: 0.509 µM | IC50 [4]: 0.353 µM | MIC [2]: 3.13 µg/mL (≈ 13.8 µM) | melting point: 234 °C

O=C1C=CC(O)(c2ccc3ccccc3c2)C=C1 [Q08, 4-(Naphth-2-yl)-4-hydroxy-2,5-cyclohexadien-1-one]
CC50 ([1]; 60 cell): 11.7 µM | GI50 [1, 6]: 0.81 µM | LC50 (colon sub-panel): 6.58 µM | mean LC50 (renal sub-panel): 4.68 µM | IC50 (HCT 116 colon carcinoma): 0.82 µM | IC50 (HT29 colon carcinoma): 2.5 µM | IC50 [3]: 1.3 µM | IC50 [4]: 1.4 µM

O=C1C=CC(O)(c2cccc3ccccc23)C=C1 [Q09, 4-(Naphth-1-yl)-4-hydroxy-2,5-cyclohexadien-1-one]
CC50 ([1]; 60 cell): 25.7 µM | GI50 [1, 6]: 1.82 µM | LC50 (colon sub-panel): 12.2 µM | mean LC50 (renal sub-panel): 17 µM | IC50 (HCT 116 colon carcinoma): 0.42 µM | IC50 (HT29 colon carcinoma): 1.36 µM | IC50 [3]: 0.78 µM | IC50 [4]: 1.77 µM

O=C1C=CC(O)(c2cnc3ccccc3c2)C=C1 [Q10, 4-(Quinolin-3-yl)-4-hydroxy-2,5-cyclohexadien-1-one]
CC50 ([1]; 60 cell): 15.8 µM | GI50 [1, 6]: 1.07 µM | LC50 (colon sub-panel): 10.2 µM | mean LC50 (renal sub-panel): 9.66 µM | IC50 (HCT 116 colon carcinoma): 0.72 µM | IC50 (HT29 colon carcinoma): 0.97 µM | IC50 [3]: 0.77 µM | IC50 [4]: 1.7 µM | MIC [2]: 3.13 µg/mL (≈ 13.2 µM)

O=C1C=CC(O)(c2ccccc2)C=C1 [Q11, 4-Phenyl-4-hydroxy-2,5-cyclohexadien-1-one]
CC50 ([1]; 60 cell): 21.9 µM | GI50 [1, 6]: 2.29 µM | LC50 (colon sub-panel): 10.6 µM | mean LC50 (renal sub-panel): 16.7 µM | IC50 (HCT 116 colon carcinoma): 2.22 µM | IC50 (HT29 colon carcinoma): 3.63 µM

O=C1C=CC(O)(c2ccccn2)C=C1 [Q12, 4-(Pyridin-2-yl)-4-hydroxy-2,5-cyclohexadien-1-one]
CC50 ([1]; 60 cell): 20.4 µM | GI50 [1, 6]: 1.91 µM | LC50 (colon sub-panel): 6.9 µM | mean LC50 (renal sub-panel): 11.3 µM | IC50 (HCT 116 colon carcinoma): 0.547 µM | IC50 (HT29 colon carcinoma): 0.46 µM | IC50 [3]: 0.72 µM | IC50 [4]: 1.5 µM | MIC [2]: 6.25 µg/mL (≈ 33.4 µM)

O=C1C=CC(O)(c2cccs2)C=C1 [Q13, 4-(Thiophen-2-yl)-4-hydroxy-2,5-cyclohexadien-1-one]
CC50 ([1]; 60 cell): 30.9 µM | GI50 [1, 6]: 1.78 µM | LC50 (colon sub-panel): 32.5 µM | mean LC50 (renal sub-panel): 14.4 µM | IC50 (HCT 116 colon carcinoma): 0.663 µM | IC50 (HT29 colon carcinoma): 1.25 µM | IC50 [3]: 0.569 µM | IC50 [4]: 0.719 µM | MIC [2]: 6.25 µg/mL (≈ 32.5 µM)

O=C1C=CC(O)(c2nccs2)C=C1 [Q14, 4-(Thiazol-2-yl)-4-hydroxy-2,5-cyclohexadien-1-one]
CC50 ([1]; 60 cell): 14.5 µM | GI50 [1, 6]: 1.35 µM | LC50 (colon sub-panel): 6.19 µM | mean LC50 (renal sub-panel): 9.17 µM | IC50 (HCT 116 colon carcinoma): 0.618 µM | IC50 (HT29 colon carcinoma): 0.719 µM | MIC [2]: 3.13 µg/mL (≈ 16.2 µM)

CCOC1(c2nc3ccccc3s2)C=CC(=O)C=C1 [Q18, 4-(Benzothiazol-2-yl)-4-ethoxy-2,5-cyclohexadien-1-one]
melting point: 59 °C

O=C1CC(Sc2ccccc2)C(O)(c2nc3ccccc3s2)C(Sc2ccccc2)C1 (stereo not drawn) [Q25]
GI50 [1, 6]: 0.59 µM | MIC [2]: 1.56 µg/mL (≈ 3.36 µM)

O=C1C=CC(OC(=O)c2ccc([N+](=O)[O-])cc2)(c2nc3ccccc3s2)C=C1 [Q34, 4-(para-nitrobenzoyloxy)-4-(benzothiazol-2-yl)-2,5-cyclohexadien-1-one]
melting point: 138 °C

COc1ccc(C(=O)OC2(c3nc4ccccc4s3)C=CC(=O)C=C2)cc1 [Q35, 4-(para-methoxybenzoyloxy)-4-(benzothiazol-2-yl)-2,5-cyclohexadien-1-one]
melting point: 137 °C

O=CN/C=C/c1cc(O)ccc1O [erbstatin]
half-life [5]: < 30 min
